According to US11433036B2, “Oxprenolol compositions for treating cancer” (priority 2013, dated 2022):
“Also recorded” adds a separate entry of the source. Like-named read-outs stand apart in the source and are kept apart here.

What was measured:
Yoshida Hepatoma Model [1] = tested on: Yoshida Hepatoma Model
Source text: (§1) Ascites hepatoma Yoshida AH-130 cells (10^3 cells) were inoculated into about 200 gram male Wistar rats by i.p. injection. Alternatively animals received saline injection only (sham). The day after inoculation animals were randomized into various groups and then received twice daily treatment with either placebo or various test compositions by oral gavage over a period of up to 17 days. The primary endpoints of the study included assessment of body weight, body composition (with and without tumor), and survival. Body composition was monitored by NMR. Echocardiography was used in instances to monitor condition of the heart. Organ weight was assessed at the end of the study (or after death) as a secondary endpoint. In addition, locomotor activity and food intake were also assessed. FIG. 1 provides a diagram showing the design study. R- and S-oxprenolol were manufactured to order by Peakdale Molecular, Peakdale Science Park, Sheffield Road. Chapel-en-le-Frith, High Peak SK23 0PG, UK
To study the effect of the test compounds on lean body mass, lean mass was determined at the end of the study.
To study the effect of the test compounds as mixtures of enantiomers on lean body mass, lean mass was determined at the end of the study.

Kelly (neuroblastoma) = details: Kelly cells; BrdU incorporation and XTT assay; FIG. 20
Procedure: (§2) The effect of the test compounds on tumor growth was also evaluated in an in vitro experiment with various tumor cells, namely, Kelly (neuroblastoma), Hela-93 (cervix carcinoma), and B16V (melanoma). Cell growth was assessed by BrdU incorporation (left of FIG. 20) and XTT assay (right of FIG. 20). Doxorubicin was used as a positive control.

B16V (melanoma) = details: B16V cells; BrdU incorporation and XTT assay; FIG. 20
Procedure: as §2

[2] = tested on: Hela-93 (cervix carcinoma); details: Hela-93 cells; BrdU incorporation and XTT assay; FIG. 20
Procedure: as §2

Yoshida Hepatoma Model [3] = tested on: Yoshida Hepatoma Model; remark: listed apart in the source
Source text: as §1
To study the effect of the test compounds on fat mass, the fat mass were determined at the end of the study.
To study the effect of the test compounds as mixtures of enantiomers on fat mass, the fat mass were determined at the end of the study.

Yoshida Hepatoma Model [4] = details: Day 11; for food intake: FIG. 17; for locomotor activity: FIG. 18
Source text: as §1
To study the effect of the test compounds on quality of life, parameters of quality of life such as food intake and locomotor activity were assessed at Day 11.

Yoshida Hepatoma Model [5] = test: Survival in Yoshida hepatoma model; format: in vivo, male Wistar rats
Source text: as §1
To study the effect of S-oxprenolol and R-oxprenolol on survival, survival was monitored over time.

Yoshida Hepatoma Model [6] = tested on: Yoshida Hepatoma Model; remark: listed apart in the source
Source text: as §1
To study the effect of the test compounds on body weight, body weight was monitored over time.
To study the effect of the test compounds as mixtures of enantiomers on body weight, body weight was monitored over time.

Yoshida Hepatoma Model [7] = details: 5, 12.5, 25 or 50 mg/kg/day; end of study; FIGS. 13A-13D
Source text: as §1
To study the effect of the test compounds on skeletal muscle atrophy and heart weight, the skeletal muscle mass and heart weight were determined at the end of the study.

Yoshida Hepatoma Model [8] = details: 5, 12.5, 25 or 50 mg/kg/day vs placebo; end of study; FIGS. 19A and 19B
Source text: as §1
To study the effect of the test compounds on tumor growth, tumor growth was assessed at the end of the study.

[9] = 5 mg/kg/day or 25 mg/kg/day vs placebo
[10] = 25 mg/kg/day S-oxprenolol vs same amount of R-oxprenolol

**Q.** `C=CCOc1ccccc1OC[C@@H](O)CNC(C)C` [S-oxprenolol, (S)-(−)-oxprenolol] was tested. Which “change in lean body mass” value (Yoshida Hepatoma Model [1]; 5, 12.5, 25 or 50 mg/kg/day, FIG. 10) did it give?
**A.** rats receiving S-oxprenolol at doses of 12.5 mg/kg/day or higher had less change in lean body mass than those receiving R-oxprenolol

**Q.** What about the “change in lean body mass” value (Yoshida Hepatoma Model [1]; S-oxprenolol 20 mg/kg/day vs racemic mixture 40 mg/kg/day, FIG. 11A) of the same compound?
**A.** less change in lean body weight than those receiving the racemic mixture

**Q.** What about the “change in lean body mass/days alive” value (Yoshida Hepatoma Model [1]; S-oxprenolol 20 mg/kg/day vs racemic mixture 40 mg/kg/day, FIG. 11B) of the same compound?
**A.** less change in lean body mass than those receiving the racemic mixture

**Q.** What about the “change in lean body mass, comparison of dosages” value (Yoshida Hepatoma Model [1]; S-oxprenolol 12.5, 25, 50, 70 or 100 mg/kg/day, FIG. 12A) of the same compound?
**A.** rats receiving 100 mg/kg/day of S-oxprenolol had the least change in lean body mass compared to rats receiving other doses

**Q.** What about the “change in lean body mass/days alive, comparison of dosages” value (Yoshida Hepatoma Model [1]; S-oxprenolol 12.5, 25, 50, 70 or 100 mg/kg/day, FIG. 12B) of the same compound?
**A.** rats receiving 100 mg/kg/day of S-oxprenolol had the least change in lean body mass/days alive compared to rats receiving other doses

**Q.** What about the tumor cell proliferation (Kelly (neuroblastoma)) of the same compound?
**A.** neither S-oxprenolol nor R-oxprenolol showed any inhibitor effects on tumor cell proliferation

**Q.** What about the tumor cell proliferation (B16V (melanoma)) of the same compound?
**A.** neither S-oxprenolol nor R-oxprenolol showed any inhibitor effects on tumor cell proliferation

**Q.** And the tumor cell proliferation [2]?
**A.** neither S-oxprenolol nor R-oxprenolol showed any inhibitor effects on tumor cell proliferation

**Q.** And the “change in fat mass” value (Yoshida Hepatoma Model [3]; 5, 12.5, 25 or 50 mg/kg/day, FIG. 14)?
**A.** rats receiving S-oxprenolol at 12.5 mg/kg/day or higher had less fat mass loss than those in the placebo group or those receiving R-oxprenolol

**Q.** And the “weight of white adipose tissue (WAT)” value (Yoshida Hepatoma Model [3]; 5, 12.5, 25 or 50 mg/kg/day, FIG. 15A)?
**A.** better effects in reducing fat wasting than R-oxprenolol

**Q.** And the “weight of brown adipose tissue (BAT)” value (Yoshida Hepatoma Model [3]; 5, 12.5, 25 or 50 mg/kg/day, FIG. 15B)?
**A.** both enantiomers of oxprenolol protect BAT mass

**Q.** And the “weight of white adipose tissue (WAT)” value (Yoshida Hepatoma Model [3]; S-oxprenolol 20 mg/kg/day vs racemic mixture 40 mg/kg/day, FIG. 16A)?
**A.** significantly better effect in preserving the white adipose tissue than those receiving the racemic mixture

**Q.** What about the “weight of brown adipose tissue (BAT)” value (Yoshida Hepatoma Model [3]; S-oxprenolol 20 mg/kg/day vs racemic mixture 40 mg/kg/day, FIG. 16B) of the same compound?
**A.** better effect in preserving the brown adipose tissue than those receiving the racemic mixture

**Q.** And the food intake (Yoshida Hepatoma Model [4]; [9])?
**A.** higher food intake than those in the placebo group

**Q.** What about the locomotor activity (Yoshida Hepatoma Model [4]; [9]) of the same compound?
**A.** higher locomotive activity than those in the placebo group

**Q.** What about the food intake (Yoshida Hepatoma Model [4]; [10]) of the same compound?
**A.** higher food intake than those receiving the same amount of R-oxprenolol

**Q.** What about the locomotor activity (Yoshida Hepatoma Model [4]; [10]) of the same compound?
**A.** higher locomotive activity than those receiving the same amount of R-oxprenolol

**Q.** And the percent survival (Yoshida Hepatoma Model [5]; 25 mg/kg/day or 50 mg/kg/day, oral gavage twice daily, up to 17 days, FIG. 2)?
**A.** longer survival than those in the placeo group or those receiving R-oxprenolol

**Q.** What about the percent survival (Yoshida Hepatoma Model [5]; S-oxprenolol 20 mg/kg/day vs racemic mixture 40 mg/kg/day (same amount of S-oxprenolol), FIG. 3) of the same compound?
**A.** longer survival than those receiving the racemic mixture; also recorded: had an improved effect on survival than the racemic mixture

**Q.** What about the “percent survival, comparison of dosages” value (Yoshida Hepatoma Model [5]; S-oxprenolol 5, 12.5, 25, 50, 70 or 100 mg/kg/day, FIGS. 4 and 5) of the same compound?
**A.** 50 mg/kg/day S-oxprenolol had the best effect on survival among all dosages tested

**Q.** And the percent survival (Yoshida Hepatoma Model [5]; S-oxprenolol vs placebo or S-pindolol 3 mg/kg/day, FIG. 4)?
**A.** significantly superior to either placebo or S-pindolol at its preferred dose

**Q.** And the survival (Yoshida Hepatoma Model [5]; animal inoculated with hepatocellular carcinoma cells, summary statement)?
**A.** significantly improved survival in animals having cancer

**Q.** And the “change of body weight” value (Yoshida Hepatoma Model [6]; 5, 12.5, 25 or 50 mg/kg/day, FIG. 7)?
**A.** less body weight loss than those in the placebo group and those administered with R-oxprenolol

**Q.** And the “change in body weight” value (Yoshida Hepatoma Model [6]; S-oxprenolol 20 mg/kg/day vs racemic mixture 40 mg/kg/day, FIG. 8)?
**A.** less body weight loss than those receiving the racemic mixture

**Q.** What about the “change in body weight, comparison of dosages” value (Yoshida Hepatoma Model [6]; S-oxprenolol 12.5, 25, 50, 70 or 100 mg/kg/day, FIG. 9) of the same compound?
**A.** rats receiving 50 mg/kg/day or 100 mg/kg/day of the S-oxprenolol had the least body weight loss

**Q.** And the “mass of skeletal muscle (gastrocnemius, tibialis anterior, soleus, EDL)” value (Yoshida Hepatoma Model [7])?
**A.** reduces wasting of individual hind limb muscles independent of their composition of slow and fast twitch muscle fibers

**Q.** And the “tumor growth (tumor volume, total number of cells in a tumor)” value (Yoshida Hepatoma Model [8])?
**A.** did not have any significant effects on tumor growth compared to those in the placebo group
